Source: patent US20120178782A1, “COMPOSITIONS AND METHODS FOR TREATING PROLIFERATIVE DISEASES” (priority 2009, published 2012)
≈ marks a conversion by molar mass, not a printed value.

Columns and labels:
MDA-MB-231 = assay: MTT cell proliferation assay, breast cancer cell line MDA-MB-231; assay type: cell-based, human; settings: single inhibitor, 72 hours culture; for minimum inhibitory concentration (cell proliferation): FIG. 1; for minimum proliferation inhibitory concentration: FIG. 1C, 1F
Text: In the experiments described below, the cells used are human breast and colon cancer cell lines. The breast cancer cell lines were obtained from Lombarda Cancer Center, Georgetown University Medical Center. The breast cancer lines are cell lines called […] and Hs578T. These cells show a high rate of proliferation, absence of estrogen receptors, are capable of forming tumors in naked mice and show a highly aggressive phenotype. Both lines are used very frequently as breast cancer models. The colon cancer cell line is the cell line called SW620 that was originally isolated from the lymphatic nodules of a patient with colon adenocarcinoma.
The cells are cultivated in polystyrene culture bottles (Corning, Corning, N.Y.). Both cell lines are kept in culture in DMEM medium (Dulbeco's Modified Tagle Medium, obtained from Gibco, Invitrogen Corporation, NY. USA) and supplemented with 10% fetal bovine serum (FBS) (obtained from PAA, GmbH Laboratories, Pasching, Austria), and supplemented with 100 U/ml of penicillin and 10 μg/ml of streptomycin (Gibco, Invitrogen Corporation, NY, USA) in incubator 37° C. In humidified atmosphere of […]/5% CO2.
There were carried out curves of dose-cell proliferation inhibition response of the human breast cancer cell line MDA-MB-231, with the intent of objectively knowing the minimum concentrations that produce a proliferation inhibiting effect.
In all the cases, the cell proliferation measurement was carried out using the MTT techniques of incorporation of Bromodeoxyuridine (BrdUr) (5-bromine-2′-deoxyuridine of Elisa Roche Applied Science, Mannheim, Germany) and the violet crystal coloration technique.
The cells were cultivated in microplates (Orange Scientific) of 96 cavities in the amount of 4,000 cells per cavity in 200 ul of DMEM supplemented with FCS supplemented with 100 U/ml of penicillin and 10 ug/ml of streptomycin in incubator at 37° C. with atmosphere of […]/5% CO2. A the end of this period, the cells were cultivated for another 24 hours in culture medium in the absence of serum. At the end of this period, culture medium with scram in the absence (control) or presence of different inhibitors was added, in accordance with the following:
The cells were kept in culture for 72 hours. Then, thiazol blue bromide reagent was added (3-(4,5-dimethylthiazol-[…])-2,5-diphenyltetrazolium bromide). It was incubated for 180 minutes at 37° C. After this time, the culture medium was discarded and the formazan crystals formed were dissolved with 200 ul of dimethylsulfoxide. The microplates were agitated for 15 minutes to dilute the crystals of homogeneous form, and absorbance was determined at 620 nm in a plate reader, “Biotra II, plate reader,” of Amersham Biosciences Inc., Piscataway, N.J., USA.

cell growth = settings: Min Yao et al. 2005; cited from earlier work
[1] = tested on: cells of the microvascular endothelium; settings: per se inhibitory doses of 75 μM; Kakiuchi-Kiyota et al. 2009; cited from earlier work
COX-2 enzyme = molecular target: T1, COX-2 enzyme (Homo sapiens, UniProt P35354); settings: plasma concentrations; cited from earlier work
T1 sequence (P35354 18-604): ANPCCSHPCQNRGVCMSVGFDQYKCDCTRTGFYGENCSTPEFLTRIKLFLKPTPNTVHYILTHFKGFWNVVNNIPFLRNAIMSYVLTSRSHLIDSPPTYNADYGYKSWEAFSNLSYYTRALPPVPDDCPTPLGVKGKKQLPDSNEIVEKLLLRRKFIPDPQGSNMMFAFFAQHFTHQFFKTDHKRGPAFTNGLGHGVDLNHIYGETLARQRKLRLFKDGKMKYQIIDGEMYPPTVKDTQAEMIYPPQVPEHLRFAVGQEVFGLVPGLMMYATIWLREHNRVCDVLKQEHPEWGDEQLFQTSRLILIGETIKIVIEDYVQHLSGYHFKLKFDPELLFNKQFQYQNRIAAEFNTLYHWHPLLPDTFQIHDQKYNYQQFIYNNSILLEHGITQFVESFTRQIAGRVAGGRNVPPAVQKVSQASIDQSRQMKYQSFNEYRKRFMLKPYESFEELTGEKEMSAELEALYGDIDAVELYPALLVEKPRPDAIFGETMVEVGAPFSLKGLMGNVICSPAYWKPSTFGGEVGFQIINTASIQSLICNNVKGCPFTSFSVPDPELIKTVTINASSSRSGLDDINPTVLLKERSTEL

SMILES | minimum inhibitory concentration (cell proliferation) (MDA-MB-231) | further results
CC1=C(C)C(=O)C(CCCCC#CCCCC#CCO)=C(C)C1=O [AA861, Docebenone] | 10 µM (≈ 3.26 µg/mL) | –
Cc1ccc(-c2ncc(Cl)cc2-c2ccc(S(C)(=O)=O)cc2)cn1 [Etoricoxib] | – | minimum proliferation inhibitory concentration (MDA-MB-231): 1000 nM
CC(C)Cc1ccc(C(C)C(=O)O)cc1 (stereo not shown) [Ibuprofen] | 500 µM (≈ 103 µg/mL) | dose for cell growth inhibition (cell growth): at least 500 μM
CN(CCOc1ccc(CC2SC(=O)NC2=O)cc1)c1ccccn1 (stereo not shown) [Rosiglitazone] | 75 µM (≈ 26.8 µg/mL) | –
Cc1c(C)c2c(c(C)c1O)CCC(C)(COc1ccc(CC3SC(=O)NC3=O)cc1)O2 (stereo not shown) [Troglitazone] | 75 µM (≈ 33.1 µg/mL) | toxic effects on endothelial cells [1]: toxic effects were described
COc1cc(C(=O)NS(=O)(=O)c2ccccc2C)ccc1Cc1cn(C)c2ccc(NC(=O)OC3CCCC3)cc12 [Zafirlukast] | – | minimum proliferation inhibitory concentration (MDA-MB-231): > 100 nM
CC(c1cc2ccccc2s1)N(O)C(N)=O (stereo not shown) [Zileuton] | 500 µM (≈ 118 µg/mL) | –
CC(=O)Oc1ccccc1C(=O)O [aspirin, acetylsalicylic acid] | – | plasma concentration inhibiting COX-2 enzyme (COX-2 enzyme): greater than 0.5 mM
